Test results reported in PubChem BioAssay (NCI).
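Dose response: 5 concentrations. Exposure: 48 h. Format: 96-well plates. Endpoint: linear interpolation; highest concentration if not reached. GI50 marks 50% less growth. TGI is the concentration that stops growth completely.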

Tests used:
Assay in all cases: inhibition of tumour cell growth, NCI panel, 48 h
HL-60(TB) leukemia = test system: HL-60(TB) leukemia
SK-MEL-2 melanoma = test system: SK-MEL-2 melanoma
NCI/ADR-RES ovarian = test system: NCI/ADR-RES ovarian
HCC-2998 colon = test system: HCC-2998 colon
ACHN renal = test system: ACHN renal
SK-MEL-5 melanoma = test system: SK-MEL-5 melanoma
LOX IMVI melanoma = test system: LOX IMVI melanoma
UACC-257 melanoma = test system: UACC-257 melanoma
A549 NSCLC = test system: A549 NSCLC
SW-620 colon = test system: SW-620 colon
SNB-19 CNS = test system: SNB-19 CNS
A498 renal = test system: A498 renal
MDA-MB-231 breast = test system: MDA-MB-231 breast
T-47D breast = test system: T-47D breast
NCI-H522 lung = test system: NCI-H522 lung
SF-268 CNS = test system: SF-268 CNS
KM12 colon = test system: KM12 colon
COLO 205 colon = test system: COLO 205 colon
HS 578T breast = test system: HS 578T breast
K-562 leukemia = test system: K-562 leukemia
CCRF-CEM leukemia = test system: CCRF-CEM leukemia
HCT-15 colon = test system: HCT-15 colon
SK-MEL-28 melanoma = test system: SK-MEL-28 melanoma
OVCAR-8 ovarian = test system: OVCAR-8 ovarian
RXF 393 renal = test system: RXF 393 renal
EKVX NSCLC = test system: EKVX NSCLC
HT29 colon = test system: HT29 colon
SF-295 CNS = test system: SF-295 CNS
HCT-116 colon = test system: HCT-116 colon
SK-OV-3 ovarian = test system: SK-OV-3 ovarian
MDA-MB-435 = test system: MDA-MB-435
MALME-3M melanoma = test system: MALME-3M melanoma
MCF7 breast = test system: MCF7 breast
BT-549 breast = test system: BT-549 breast
HOP-92 NSCLC = test system: HOP-92 NSCLC
SNB-75 CNS = test system: SNB-75 CNS
SR leukemia = test system: SR leukemia
M14 melanoma = test system: M14 melanoma
NCI-H226 lung = test system: NCI-H226 lung
NCI-H460 lung = test system: NCI-H460 lung
PC-3 prostate = test system: PC-3 prostate
UO-31 renal = test system: UO-31 renal
UACC-62 melanoma = test system: UACC-62 melanoma
NCI-H23 lung = test system: NCI-H23 lung
TK-10 renal = test system: TK-10 renal
IGROV1 ovarian = test system: IGROV1 ovarian
HOP-62 NSCLC = test system: HOP-62 NSCLC
CAKI-1 renal = test system: CAKI-1 renal
SF-539 CNS = test system: SF-539 CNS
SN12C renal = test system: SN12C renal
RPMI-8226 leukemia = test system: RPMI-8226 leukemia
DU-145 prostate = test system: DU-145 prostate
OVCAR-3 ovarian = test system: OVCAR-3 ovarian
MOLT-4 leukemia = test system: MOLT-4 leukemia
OVCAR-4 ovarian = test system: OVCAR-4 ovarian
786-0 renal = test system: 786-0 renal
U251 CNS = test system: U251 CNS
OVCAR-5 ovarian = test system: OVCAR-5 ovarian

O=C(Nc1cccc(Cl)c1)Nc1nc2ccc([N+](=O)[O-])cc2s1
GI50 (HL-60(TB) leukemia): 0.365 µM
TGI (HL-60(TB) leukemia): 1.51 µM
GI50 (SK-MEL-2 melanoma): 0.434 µM
TGI (SK-MEL-2 melanoma): 2.03 µM
GI50 (NCI/ADR-RES ovarian): 0.403 µM
TGI (NCI/ADR-RES ovarian): 1.82 µM
GI50 (HCC-2998 colon): 0.465 µM
TGI (HCC-2998 colon): 2.21 µM
GI50 (ACHN renal): 0.525 µM
TGI (ACHN renal): 2.56 µM
GI50 (SK-MEL-5 melanoma): 0.315 µM
TGI (SK-MEL-5 melanoma): 1.1 µM
GI50 (LOX IMVI melanoma): 0.436 µM
TGI (LOX IMVI melanoma): 1.63 µM
GI50 (UACC-257 melanoma): 0.532 µM
TGI (UACC-257 melanoma): 3.49 µM
GI50 (A549 NSCLC): 0.779 µM
TGI (A549 NSCLC): 7.46 µM
GI50 (SW-620 colon): 0.49 µM
TGI (SW-620 colon): 2.39 µM
GI50 (SNB-19 CNS): 0.531 µM
TGI (SNB-19 CNS): 4.28 µM
GI50 (A498 renal): 0.244 µM
TGI (A498 renal): 0.973 µM
GI50 (MDA-MB-231 breast): 0.676 µM
TGI (MDA-MB-231 breast): 3.05 µM
GI50 (T-47D breast): 0.307 µM
TGI (T-47D breast): 1.85 µM
GI50 (NCI-H522 lung): 0.331 µM
TGI (NCI-H522 lung): 2.01 µM
GI50 (SF-268 CNS): 0.685 µM
TGI (SF-268 CNS): 3.55 µM
GI50 (KM12 colon): 0.466 µM
TGI (KM12 colon): 2.12 µM
GI50 (COLO 205 colon): 1.26 µM
TGI (COLO 205 colon): 2.84 µM
GI50 (HS 578T breast): 0.675 µM
TGI (HS 578T breast): 3.34 µM
GI50 (K-562 leukemia): 0.355 µM
TGI (K-562 leukemia): 1.42 µM
GI50 (CCRF-CEM leukemia): 0.375 µM
TGI (CCRF-CEM leukemia): 3.82 µM
GI50 (HCT-15 colon): 0.466 µM
TGI (HCT-15 colon): 2.03 µM
GI50 (SK-MEL-28 melanoma): 0.423 µM
TGI (SK-MEL-28 melanoma): 1.67 µM
GI50 (OVCAR-8 ovarian): 1.12 µM
TGI (OVCAR-8 ovarian): 11.2 µM
GI50 (RXF 393 renal): 0.458 µM
TGI (RXF 393 renal): 1.79 µM
GI50 (EKVX NSCLC): 0.558 µM
TGI (EKVX NSCLC): 3.54 µM
GI50 (HT29 colon): 2.82 µM
TGI (HT29 colon): 10.7 µM
GI50 (SF-295 CNS): 0.527 µM
TGI (SF-295 CNS): 1.97 µM
GI50 (HCT-116 colon): 0.33 µM
TGI (HCT-116 colon): 1.19 µM
GI50 (SK-OV-3 ovarian): 0.736 µM
TGI (SK-OV-3 ovarian): 5.17 µM
GI50 (MDA-MB-435): 0.524 µM
TGI (MDA-MB-435): 2.29 µM
GI50 (MALME-3M melanoma): 0.367 µM
TGI (MALME-3M melanoma): 1.63 µM
GI50 (MCF7 breast): 0.452 µM
TGI (MCF7 breast): 3.05 µM
GI50 (BT-549 breast): 0.415 µM
TGI (BT-549 breast): 1.4 µM
GI50 (HOP-92 NSCLC): 0.145 µM
TGI (HOP-92 NSCLC): 0.454 µM
GI50 (SNB-75 CNS): 0.539 µM
TGI (SNB-75 CNS): 3.17 µM
GI50 (SR leukemia): 0.35 µM
TGI (SR leukemia): 1.91 µM
GI50 (M14 melanoma): 0.66 µM
TGI (M14 melanoma): 2.54 µM
GI50 (NCI-H226 lung): 0.623 µM
TGI (NCI-H226 lung): 2.5 µM
GI50 (NCI-H460 lung): 0.398 µM
TGI (NCI-H460 lung): 1.97 µM
GI50 (PC-3 prostate): 0.317 µM
TGI (PC-3 prostate): 1.19 µM
GI50 (UO-31 renal): 0.388 µM
TGI (UO-31 renal): 1.79 µM
GI50 (UACC-62 melanoma): 0.359 µM
TGI (UACC-62 melanoma): 1.46 µM
GI50 (NCI-H23 lung): 0.304 µM
TGI (NCI-H23 lung): 0.989 µM
GI50 (TK-10 renal): 0.808 µM
TGI (TK-10 renal): 5.49 µM
GI50 (IGROV1 ovarian): 0.617 µM
TGI (IGROV1 ovarian): 3.88 µM
GI50 (HOP-62 NSCLC): 0.911 µM
TGI (HOP-62 NSCLC): 3.55 µM
GI50 (CAKI-1 renal): 0.483 µM
TGI (CAKI-1 renal): 2.24 µM
GI50 (SF-539 CNS): 0.603 µM
TGI (SF-539 CNS): 2.17 µM
GI50 (SN12C renal): 0.447 µM
TGI (SN12C renal): 2.52 µM
GI50 (RPMI-8226 leukemia): 0.263 µM
TGI (RPMI-8226 leukemia): 0.632 µM
GI50 (DU-145 prostate): 0.693 µM
TGI (DU-145 prostate): 8.47 µM
GI50 (OVCAR-3 ovarian): 0.402 µM
TGI (OVCAR-3 ovarian): 1.75 µM
GI50 (MOLT-4 leukemia): 0.375 µM
TGI (MOLT-4 leukemia): 2.34 µM
GI50 (OVCAR-4 ovarian): 0.429 µM
TGI (OVCAR-4 ovarian): 2.93 µM
GI50 (786-0 renal): 0.409 µM
TGI (786-0 renal): 1.69 µM
GI50 (U251 CNS): 0.452 µM
TGI (U251 CNS): 3.55 µM
GI50 (OVCAR-5 ovarian): 1.79 µM
TGI (OVCAR-5 ovarian): 6.83 µM
